Reference: publication PMC10732257 (Oncotarget, 2023)

Legend:
CDK13/cyclin K = biological target: T1, CDK13/cyclin K (Homo sapiens, UniProt Q14004); assay: CDK family off-target kinase activity (Eurofins); assay type: biochemical
T1 construct: purchased Eurofins Pharma Discovery Services UK Ltd
Description: The pharmacodynamic and mechanistic foundation for the
CDK9 inhibitor for the treatment of hematologic malignancies
Supplementary Table 1: Inhibitory action of GFH009 on other CDK family members
Various CDK/ Remaining enzymatic activity (%) after
cognate cyclin pairs tested exposure to GFH009 at a concentration of Selectivity vs. CDK9
(also on this page, place not known: www.oncotarget.com Oncotarget, Materials Supplementary)
(1 picture or pasted object on this page, not shown here)

5-HT1A (serotonin) = biological target: T2, 5-HT1A (serotonin) (Homo sapiens, UniProt P08908); assay: GPCR competitive antagonist (off-target inhibitory action) testing; assay type: cell-based
T2 construct: Wuxi AppTech (Shanghai, China)
Description: (§1) Supplementary Table 3: Results of off-target inhibitory action testing of GFH009 administered at
(§2) Competitive antagonist activity against GPCR type shown below

5-HT1B (serotonin) = biological target: T3, 5-HT1B (serotonin) (Homo sapiens, UniProt P28222); assay: as above; assay type: cell-based
T3 construct: Wuxi AppTech (Shanghai, China)
Description: as §1, §2

5-HT2A (serotonin) = biological target: T4, 5-HT2A (serotonin) (Homo sapiens, UniProt P28223); assay: as above; assay type: cell-based
T4 construct: Wuxi AppTech (Shanghai, China)
Description: as §1, §2

5-HT2B (serotonin) = biological target: T5, 5-HT2B (serotonin) (Homo sapiens, UniProt P41595); assay: as above; assay type: cell-based
T5 construct: Wuxi AppTech (Shanghai, China)
Description: as §1, §2

AD2 (adenosine) = assay: as above; assay type: cell-based
Description: as §1, §2

CB1 (cannabinoid) = biological target: T6, CB1 (cannabinoid) (Homo sapiens, UniProt P21554); assay: as above; assay type: cell-based
T6 construct: Wuxi AppTech (contract laboratory)
Description: as §1, §2

CB2 (cannabinoid) = biological target: T7, CB2 (cannabinoid) (Homo sapiens, UniProt P34972); assay: as above; assay type: cell-based
T7 construct: Wuxi AppTech (contract laboratory)
Description: as §1, §2

CCKa = biological target: T8, CCKa (Homo sapiens, UniProt P32238); assay: as above; assay type: cell-based
T8 construct: Wuxi AppTech (contract laboratory)
Description: as §1, §2

D1 (dopamine) = biological target: T9, D1 (dopamine) (Homo sapiens, UniProt P21728); assay: as above; assay type: cell-based
T9 construct: Wuxi AppTech (contract laboratory)
Description: as §1, §2

D2 (dopamine) = biological target: T10, D2 (dopamine) (Homo sapiens, UniProt P14416); assay: as above; assay type: cell-based
T10 construct: Wuxi AppTech (contract laboratory)
Description: as §1, §2

ETA (endothelin) = biological target: T11, ETA (endothelin) (Homo sapiens, UniProt P25101); assay: as above; assay type: cell-based
T11 construct: Wuxi AppTech (contract laboratory)
Description: as §1, §2

H1 (histamine) = biological target: T12, H1 (histamine) (Homo sapiens, UniProt P35367); assay: as above; assay type: cell-based
T12 construct: Wuxi AppTech (contract laboratory)
Description: as §1, §2

H2 (histamine) = H2 (histamine) (Homo sapiens, UniProt P25021); assay: as above; assay type: cell-based
Description: as §1, §2

V1A (vasopressin) = V1A (vasopressin) (Homo sapiens, UniProt P37288); assay: as above; assay type: cell-based
Description: as §1, §2

a1a (adrenoceptor) = biological target: T13, a1a (adrenoceptor) (Homo sapiens, UniProt P35348); assay: as above; assay type: cell-based
T13 construct: Wuxi AppTech (contract laboratory)
Description: as §1, §2

a2a (adrenoceptor) = biological target: T14, a2a (adrenoceptor) (Homo sapiens, UniProt P08913); assay: as above; assay type: cell-based
T14 construct: Wuxi AppTech (contract laboratory)
Description: as §1, §2

b1 (adrenoceptor) = biological target: T15, b1 (adrenoceptor) (Homo sapiens, UniProt P08588); assay: as above; assay type: cell-based
T15 construct: Wuxi AppTech (contract laboratory)
Description: as §1, §2

b2 (adrenoceptor) = biological target: T16, b2 (adrenoceptor) (Homo sapiens, UniProt P07550); assay: as above; assay type: cell-based
T16 construct: Wuxi AppTech (contract laboratory)
Description: as §1, §2

op-d (opioid) = op-d (opioid) (Homo sapiens, UniProt P41143); assay: as above; assay type: cell-based
Description: as §1, §2

op-k (opioid) = op-k (opioid) (Homo sapiens, UniProt P41145); assay: as above; assay type: cell-based
Description: as §1, §2

op-m (opioid) = op-m (opioid) (Homo sapiens, UniProt P35372); assay: as above; assay type: cell-based
Description: as §1, §2

M1 (muscarinic Ach) = M1 (muscarinic Ach) (Homo sapiens, UniProt P11229); assay: as above; assay type: cell-based
Description: as §1, §2
(§3) Target % Inhibitory Effect @ Max Dose
(§4) M1 (muscarinic Ach) 98.78
(§5) M2 (muscarinic Ach) 95.69
(§6) M3 (muscarinic Ach) 99.12

M2 (muscarinic Ach) = M2 (muscarinic Ach) (Homo sapiens, UniProt P08172); assay: as above; assay type: cell-based
Description: as §1, §2, §3, §4, §5, §6

M3 (muscarinic Ach) = M3 (muscarinic Ach) (Homo sapiens, UniProt P20309); assay: as above; assay type: cell-based
Description: as §1, §2, §3, §4, §5, §6

MV-4-11 xenograft tumor = assay: Western blot of CDK9-dependent protein expression in MV-4-11 xenograft tumor tissue; assay type: in vivo, female BALB/c nude mice; details: single dose 15 mg/kg i.v.
Experimental: Figure 9 Effect of GFH009 treatment on CDK9-dependent protein expression in vivo. Female BALB/c nude mice were subcutaneously inoculated with 5 × 10^6 MV-4-11 cells. […] The mice were euthanized, and tumor tissues were collected at different times after administration as indicated for western blot analysis. Three individual mice were selected from GFH009 treatment group.
In vivo protein expression was assessed via SDS-PAGE and western blotting of samples from female BALB/c nude mice following treatment with GHF009. […] When tumors reached approximately 600 mm^3 (Day 25), animals were randomly divided into two groups. Group 1 received a single dose of vehicle control. […] Both were administered via tail vein injection.
All mice were euthanized, and tumor tissues collected at required times following administration. Group 1 control animals were euthanized at 2 hours post-administration. Group 2 animals were euthanized at 1, 2, 4, 8, 24, and 48 hours after administration. Tumor tissue was harvested, weighed, and flash frozen in liquid nitrogen. Total proteins were extracted and analyzed by western blot to determine expression of phospho-Rpb1 CTD Ser2, RPB1, MYC, MCL-1, Cleaved Caspase-3, and vinculin. Image Studio V5.0 was used to analyze all western blot membrane images.

## COC[C@@H](C)NC1CCC(Nc2cc(-c3csc(NCC4(C#N)CCOCC4)n3)c(Cl)cn2)CC1 (some centres unmarked) [GFH009]
CDK13/cyclin K
  Selectivity vs. CDK9: > 1000
CDK13/cyclin K; 1 µM
  Remaining enzymatic activity (%) after exposure to GFH009: 93%
CDK13/cyclin K; 10 µM
  Remaining enzymatic activity (%) after exposure to GFH009: 88%
5-HT1A (serotonin)
  % Inhibitory Effect @ Max Dose (10 µM): 12.31%
5-HT1B (serotonin)
  % Inhibitory Effect @ Max Dose (10 µM): 4.71%
5-HT2A (serotonin)
  % Inhibitory Effect @ Max Dose (10 µM): −7.10%
5-HT2B (serotonin)
  % Inhibitory Effect @ Max Dose (10 µM): −24.98%
AD2 (adenosine)
  % Inhibitory Effect @ Max Dose (10 µM): −13.58%
CB1 (cannabinoid)
  % Inhibitory Effect @ Max Dose (10 µM): −9.21%
CB2 (cannabinoid)
  % Inhibitory Effect @ Max Dose (10 µM): −8.86%
CCKa
  % Inhibitory Effect @ Max Dose (10 µM): 16.26%
D1 (dopamine)
  % Inhibitory Effect @ Max Dose (10 µM): 1.10%
D2 (dopamine)
  % Inhibitory Effect @ Max Dose (10 µM): 10.34%
ETA (endothelin)
  % Inhibitory Effect @ Max Dose (10 µM): −0.32%
H1 (histamine)
  % Inhibitory Effect @ Max Dose (10 µM): 12.37%
H2 (histamine)
  % Inhibitory Effect @ Max Dose (10 µM): −18.49%
V1A (vasopressin)
  % Inhibitory Effect @ Max Dose (10 µM): −1.57%
a1a (adrenoceptor)
  % Inhibitory Effect @ Max Dose (10 µM): 68.39%
a2a (adrenoceptor)
  % Inhibitory Effect @ Max Dose (10 µM): 5.16%
b1 (adrenoceptor)
  % Inhibitory Effect @ Max Dose (10 µM): 30.48%
b2 (adrenoceptor)
  % Inhibitory Effect @ Max Dose (10 µM): −3.46%
op-d (opioid)
  % Inhibitory Effect @ Max Dose (10 µM): −15.46%
op-k (opioid)
  % Inhibitory Effect @ Max Dose (10 µM): 11.54%
op-m (opioid)
  % Inhibitory Effect @ Max Dose (10 µM): 20.94%
M1 (muscarinic Ach)
  % Inhibitory Effect @ Max Dose (10 µM): 98.78%
M2 (muscarinic Ach)
  % Inhibitory Effect @ Max Dose (10 µM): 95.69%
M3 (muscarinic Ach)
  % Inhibitory Effect @ Max Dose (10 µM): 99.12%
MV-4-11 xenograft tumor; from 2 hours through 48-hour time point
  Levels of MCL-1 and MYC in tumor: began to decrease significantly
MV-4-11 xenograft tumor; from one hour through 48 hours post-administration
  Expression of p-Rpb1 phospho-Ser2 in tumor: began to decrease significantly
